US10364245B2 (CHIESI FARMACEUTICI S.p.A., priority 2017, dated 2019)
Structures can show the parent of a compound that is named as a salt.

Legend:
[1] = target: T1, p38 alpha (Homo sapiens, UniProt Q16539); assay: P38 alpha enzyme inhibition assay (Alphascreen kinase activity assay); type: biochemical; conditions: 100 pM p38 alpha, 2 hours preincubation at 25° C., 250 μM ATP, ATF-2 fusion protein; read-out: p38α inhibition
T1 construct: purchased Invitrogen PV3304
Summary of the method: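 Phosphorylation of ATF-2 fusion protein (0.3 μg/ml) read by AlphaScreen with anti-phospho-ATF2 antibody after 1 h kinase reaction at 25 °C, initiated by 250 μM ATP. Compounds first incubated 2 h at 25 °C with 100 pM p38 alpha in pH 7.5 HEPES buffer, 1% DMSO. IC50 derived from concentration-response data.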

[2] = system: Peripheral Blood Mononuclear Cells (PBMCs), TNFα release; assay: LPS-stimulated PBMC TNFα release assay; type: cell-based; conditions: human PBMC, LPS (10 ng/ml), 18 h, compound 1 h before LPS; read-out: LPS-stimulated PBMC TNFα release inhibition
Summary of the method: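 TNFα in cell-free supernatant, read on MSD plates, gave % inhibition curves and IC50 (≥3 separate experiments). Healthy-donor PBMCs had 1 h compound exposure at 37 °C in 1% FBS medium, then 18 h stimulation with 10 ng/ml LPS, after a 3 h serum-free rest.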

T1 sequence (Q16539 whole entry, the tested form may be a part): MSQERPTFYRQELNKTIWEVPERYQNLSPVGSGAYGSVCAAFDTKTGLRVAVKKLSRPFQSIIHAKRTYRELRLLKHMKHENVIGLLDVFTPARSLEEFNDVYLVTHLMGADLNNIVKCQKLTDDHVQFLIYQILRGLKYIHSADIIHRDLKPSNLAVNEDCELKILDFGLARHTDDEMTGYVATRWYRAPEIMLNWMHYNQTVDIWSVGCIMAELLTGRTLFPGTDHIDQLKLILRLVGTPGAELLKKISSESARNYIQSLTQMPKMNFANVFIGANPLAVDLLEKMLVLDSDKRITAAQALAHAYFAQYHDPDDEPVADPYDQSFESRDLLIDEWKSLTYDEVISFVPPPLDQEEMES

IC50 [1] [nM] | Compound | IC50 [2] [nM]
1 to 10 | COCC(C)(C)c1nnc2ccc(O[C@@H]3CC[C@H](NC(=O)Nc4cc(C(C)(C)C)nc(C(=O)NCC(C)(C)N5CC(OC)C5)n4)c4ccccc43)cn12 [Example 171, 4-(tert-butyl)-6-(3-((1S,4R)-4-((3-(1-methoxy-2-methylpropan-2-yl)-[1,2,4]triazolo[4,3-a]pyridin-6-yl)oxy)-1,2,3,4-tetrahydronaphthalen-1-yl)ureido)-N-(2-(3-methoxyazetidin-1-yl)-2-methylpropyl)pyrimidine-2-carboxamide] | 1 to 5
< 1 | CCC(CC)c1nnc2ccc(O[C@@H]3CC[C@H](NC(=O)Nc4cc(C(C)(C)C)nc(C(=O)NCC(C)(C)N5CCN(C)CC5)n4)c4ccccc43)cn12 [Example 173, 4-(tert-butyl)-N-(2-methyl-2-(4-methylpiperazin-1-yl)propyl)-6-(3-((1S,4R)-4-((3-(pentan-3-yl)-[1,2,4]triazolo[4,3-a]pyridin-6-yl)oxy)-1,2,3,4-tetrahydronaphthalen-1-yl)ureido)pyrimidine-2-carboxamide formate salt] | 1 to 5
< 1 | CCC(CC)c1nnc2ccc(O[C@@H]3CC[C@H](NC(=O)Nc4cc(C(C)(C)C)nc(C(=O)NCC(C)(C)N5CC(OC)C5)n4)c4ccccc43)cn12 [Example 174, 4-(tert-butyl)-N-(2-(3-methoxyazetidin-1-yl)-2-methylpropyl)-6-(3-((1S,4R)-4-((3-(pentan-3-yl)-[1,2,4]triazolo[4,3-a]pyridin-6-yl)oxy)-1,2,3,4-tetrahydronaphthalen-1-yl)ureido)pyrimidine-2-carboxamide formate salt] | 1 to 5
< 1 | CCC(CC)c1nnc2ccc(O[C@@H]3CC[C@H](NC(=O)Nc4cc(C(C)(C)C)nc(C(=O)NCC(C)(C)N(C)C)n4)c4ccccc43)cn12 [Example 175, 4-(tert-butyl)-N-(2-(dimethylamino)-2-methylpropyl)-6-(3-((1S,4R)-4-((3-(pentan-3-yl)-[1,2,4]triazolo[4,3-a]pyridin-6-yl)oxy)-1,2,3,4-tetrahydronaphthalen-1-yl)ureido)pyrimidine-2-carboxamide formate salt] | 1 to 5
< 1 | CCC(CC)c1nnc2ccc(O[C@@H]3CC[C@H](NC(=O)Nc4cc(C(C)(C)C)nc(C(=O)NCC(C)(C)N(C)CC)n4)c4ccccc43)cn12 [Example 176, 4-(tert-butyl)-N-(2-(ethyl(methyl)amino)-2-methylpropyl)-6-(3-((1S,4R)-4-((3-(pentan-3-yl)-[1,2,4]triazolo[4,3-a]pyridin-6-yl)oxy)-1,2,3,4-tetrahydronaphthalen-1-yl)ureido)pyrimidine-2-carboxamide] | 1 to 5
1 to 10 | COCCN(C)C(C)(C)CNC(=O)c1nc(NC(=O)N[C@H]2CC[C@@H](Oc3ccc4nnc(C(C)(C)COC)n4c3)c3ccccc32)cc(C(C)(C)C)n1 [Example 178, 4-(tert-butyl)-6-(3-((1S,4R)-4-((3-(1-methoxy-2-methylpropan-2-yl)-[1,2,4]triazolo[4,3-a]pyridin-6-yl)oxy)-1,2,3,4-tetrahydronaphthalen-1-yl)ureido)-N-(2-((2-methoxyethyl)(methyl)-amino)-2-methylpropyl)pyrimidine-2-carboxamide] | 1 to 5
< 1 | CN(CCO)CCNC(=O)c1nc(NC(=O)N[C@H]2CC[C@@H](Oc3ccc4nnc(C5(C)CCCC5)n4c3)c3ccccc32)cc(C(C)(C)C)n1 [Example 181, 4-(tert-butyl)-N-(2-((2-hydroxyethyl)(methyl)amino)ethyl)-6-(3-((1S,4R)-4-((3-(1-methylcyclopentyl)-[1,2,4]triazolo[4,3-a]pyridin-6-yl)oxy)-1,2,3,4-tetrahydronaphthalen-1-yl)ureido)pyrimidine-2-carboxamide] | 1 to 5
< 1 | CC(C)(C)c1cc(NC(=O)N[C@H]2CC[C@@H](Oc3ccc4nnc(C5(C)CCCC5)n4c3)c3ccccc32)nc(C(=O)NCCN2CCCOCC2)n1 [Example 182, N-(2-(1,4-oxazepan-4-yl)ethyl)-4-(tert-butyl)-6-(3-((1S,4R)-4-((3-(1-methylcyclopentyl)-[1,2,4]triazolo[4,3-a]pyridin-6-yl)oxy)-1,2,3,4-tetrahydronaphthalen-1-yl)ureido)pyrimidine-2-carboxamide] | < 1
< 1 | CN(C)C(C)(C)CNC(=O)c1nc(NC(=O)N[C@H]2CC[C@@H](Oc3ccc4nnc(C5(C)CCCC5)n4c3)c3ccccc32)cc(C(C)(C)C)n1 [Example 183, 4-(tert-butyl)-N-(2-(dimethylamino)-2-methylpropyl)-6-(3-((1S,4R)-4-((3-(1-methylcyclopentyl)-[1,2,4]triazolo[4,3-a]pyridin-6-yl)oxy)-1,2,3,4-tetrahydronaphthalen-1-yl)ureido)pyrimidine-2-carboxamide] | 1 to 5
< 1 | CC(C)(C)c1cc(NC(=O)N[C@H]2CC[C@@H](Oc3ccc4nnc(C5(C)CCCC5)n4c3)c3ccccc32)nc(C(=O)NCCCN2CCOCC2)n1 [Example 184, 4-(tert-Butyl)-6-(3-((1S,4R)-4-((3-(1-methylcyclopentyl)-[1,2,4]triazolo[4,3-a]pyridin-6-yl)oxy)-1,2,3,4-tetrahydronaphthalen-1-yl)ureido)-N-(3-morpholinopropyl)-pyrimidine-2-carboxamide formate salt] | < 1
< 1 | CN(C)CCNC(=O)c1cc(NC(=O)N[C@H]2CC[C@@H](Oc3ccc4nnc(C(C)(C)C)n4c3)c3ccccc32)cc(C(C)(C)C)n1 [Example 186, 6-(tert-butyl)-4-(3-((1S,4R)-4-((3-(tert-butyl)-[1,2,4]triazolo[4,3-a]pyridin-6-yl)oxy)-1,2,3,4-tetrahydronaphthalen-1-yl)ureido)-N-(2-(dimethylamino)ethyl)-picolinamide] | < 1
1 to 10 | CC(C)(C)c1cc(NC(=O)N[C@H]2CC[C@@H](Oc3ccc4nnc(C(C)(C)C)n4c3)c3ccccc32)cc(C(=O)NCCCN2CCOCC2)n1 [Example 187, 6-(tert-butyl)-4-(3-((1S,4R)-4-((3-(tert-butyl)-[1,2,4]triazolo[4,3-a]pyridin-6-yl)oxy)-1,2,3,4-tetrahydronaphthalen-1-yl)ureido)-N-(3-morpholinopropyl)-picolinamide] | 1 to 5
< 1 | CN(CCO)CCNC(=O)c1cc(NC(=O)N[C@H]2CC[C@@H](Oc3ccc4nnc(C(C)(C)C)n4c3)c3ccccc32)cc(C(C)(C)C)n1 [Example 188, 6-(tert-butyl)-4-(3-((1S,4R)-4-((3-(tert-butyl)-[1,2,4]triazolo[4,3-a]pyridin-6-yl)oxy)-1,2,3,4-tetrahydronaphthalen-1-yl)ureido)-N-(2-((2-hydroxyethyl)(methyl)-amino)ethyl)picolinamide] | 1 to 5
1 to 10 | CC(C)(C)c1cc(NC(=O)N[C@H]2CC[C@@H](Oc3ccc4nnc(C(C)(C)C)n4c3)c3ccccc32)cc(C(=O)NCCN2CCCOCC2)n1 [Example 189, N-(2-(1,4-oxazepan-4-yl)ethyl)-6-(tert-butyl)-4-(3-((1S,4R)-4-((3-(tert-butyl)-[1,2,4]triazolo[4,3-a]pyridin-6-yl)oxy)-1,2,3,4-tetrahydronaphthalen-1-yl)ureido)picolinamide] | 1 to 5
< 1 | COCC(C)(C)c1nnc2ccc(O[C@@H]3CC[C@H](NC(=O)Nc4cc(C(=O)NCCN(C)C)nc(C(C)(C)C)c4)c4ccccc43)cn12 [Example 190, 6-(tert-butyl)-N-(2-(dimethylamino)ethyl)-4-(3-((1S,4R)-4-((3-(1-methoxy-2-methylpropan-2-yl)-[1,2,4]triazolo[4,3-a]pyridin-6-yl)oxy)-1,2,3,4-tetrahydronaphthalen-1-yl)ureido)picolinamide] | 1 to 5
1 to 10 | CCN(C)CCNC(=O)c1cc(NC(=O)N[C@H]2CC[C@@H](Oc3ccc4nnc(C(C)(C)C)n4c3)c3ccccc32)cc(C(C)(C)C)n1 [Example 191, 6-(tert-butyl)-4-(3-((1S,4R)-4-((3-(tert-butyl)-[1,2,4]triazolo[4,3-a]pyridin-6-yl)oxy)-1,2,3,4-tetrahydronaphthalen-1-yl)ureido)-N-(2-(ethyl(methyl)amino)-ethyl)picolinamide] | 1 to 5
1 to 10 | COCCN(C)CCNC(=O)c1cc(NC(=O)N[C@H]2CC[C@@H](Oc3ccc4nnc(C(C)(C)C)n4c3)c3ccccc32)cc(C(C)(C)C)n1 [Example 192, 6-(tert-butyl)-4-(3-((1S,4R)-4-((3-(tert-butyl)-[1,2,4]triazolo[4,3-a]pyridin-6-yl)oxy)-1,2,3,4-tetrahydronaphthalen-1-yl)ureido)-N-(2-((2-methoxyethyl)(methyl)-amino)ethyl)picolinamide] | 1 to 5
1 to 10 | COC1CN(CCNC(=O)c2cc(NC(=O)N[C@H]3CC[C@@H](Oc4ccc5nnc(C(C)(C)C)n5c4)c4ccccc43)cc(C(C)(C)C)n2)C1 [Example 193, 6-(tert-butyl)-4-(3-((1S,4R)-4-((3-(tert-butyl)-[1,2,4]triazolo[4,3-a]pyridin-6-yl)oxy)-1,2,3,4-tetrahydronaphthalen-1-yl)ureido)-N-(2-(3-methoxyazetidin-1-yl)ethyl)picolinainide] | 1 to 5
